This is an account of results in patent US20240294499A1, “TARGETED PROTEIN DEGRADATION USING BIFUNCTIONAL COMPOUNDS THAT BIND UBIQUITIN LIGASE AND TARGET MCL-1 PROTEIN” (Captor Therapeutics S.A., priority 2021, published 2024).

The test system of data set [1] is OPM-2 cells. Nature of the data set: Cell viability assay (CellTiter-Glo), OPM-2. The note with it: Homo sapiens, 24 hours incubation, 1% FBS, read-out: Average pIC50 by molecule OPM-2 (converted). The format is cell-based. The text has this:
The effect of various compounds of the invention on the viability of OPM-2, MV-4-11 and ARH-77 cell lines was investigated, using the CTG protocol described below.
OPM-2 and MV-4-11 cell lines are derived from multiple myeloma and acute myeloid leukaemia, respectively. Both cell lines are described in the literature as MCL-1 dependent lines, as opposed to lymphoblast-like ARH-77 cell line, which is described as independent of MCL-1 (Tron A E et al. Nat Commun. 2018; 9: 5341; Caenepeel S et al. Cancer Discov. 2018 December; 8(12):1582-1597).
Cells (OPM-2, MV-4-11 or ARH-77) were seeded on […] in a growth medium with FBS reduced to 1%. Next, compound stocks were pre-diluted in DMSO and added directly to the cells growth medium (final DMSO concentration: 0.5%). Compound concentrations used in this assay: 1/3 dilutions starting at 30 uM (9 to 12 points).
After 24 hours of incubation, cell viability was evaluated using CellTiter-Glo Luminescent Cell Viability Assay (Promega, cat #G7572). Luminescence signal was measured using a CLARIOstar Plus Multi-Mode Microplate Reader (574-590 nm).
Results were normalized to DMSO control.

For data set [2], the system named is MV-4-11 cells. Put plainly: Cell viability assay (CellTiter-Glo), MV-4-11. The format is cell-based. The note with it: Homo sapiens, MV4-11, 24 hours incubation, 1% FBS, read-out: Average pIC50 by molecule MV-4-11 (converted). The method in brief: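 OPM-2, MV-4-11 and ARH-77 cells were grown in medium with 1% FBS and treated with compound in 1/3 dilutions from 30 uM (9–12 points, 0.5% DMSO). Viability was read by CellTiter-Glo luminescence after 24 hours and normalized to DMSO control.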
(In general: Cellular ATP, detected with luciferase, serves as a proxy for viable cell number.)

For data set [3], the target named is [MCL-1]-[compound of formula (I)]-[CRBN/DDB1] complex (Homo sapiens, UniProt Q07820+Q96SW2). Nature of the data set: AlphaLISA dose response ternary complex formation assay. The note with it: read-out: AlphaLISA dose response Average pEC50 by molecule (converted). The format is binding. Summed up: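 EC50 comes from dose–response of AlphaLISA luminescence (excitation 680, emission 615 nm), normalised between DMSO background and an internal positive control, with concentrations past the hook point dropped. Ternary complex formed by mixing bead-bound biotin-hMCL-1 and His-CRBN/DDB1 (protein solutions 40 and 200 nM) with compound in 2% DMSO, 30 min, 25 °C.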
Sequence of [MCL-1]-[compound of formula (I)]-[CRBN/DDB1] complex (Q07820 whole entry): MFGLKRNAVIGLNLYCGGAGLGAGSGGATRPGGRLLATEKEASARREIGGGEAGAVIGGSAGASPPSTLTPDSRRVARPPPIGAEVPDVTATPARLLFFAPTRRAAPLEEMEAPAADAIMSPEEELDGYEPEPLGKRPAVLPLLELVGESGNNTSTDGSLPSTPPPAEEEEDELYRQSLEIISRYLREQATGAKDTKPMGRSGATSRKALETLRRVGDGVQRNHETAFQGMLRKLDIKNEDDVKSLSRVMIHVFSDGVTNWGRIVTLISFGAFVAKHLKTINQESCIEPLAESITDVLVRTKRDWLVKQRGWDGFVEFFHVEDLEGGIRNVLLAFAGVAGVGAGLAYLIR
Sequence of [MCL-1]-[compound of formula (I)]-[CRBN/DDB1] complex (Q96SW2 whole entry): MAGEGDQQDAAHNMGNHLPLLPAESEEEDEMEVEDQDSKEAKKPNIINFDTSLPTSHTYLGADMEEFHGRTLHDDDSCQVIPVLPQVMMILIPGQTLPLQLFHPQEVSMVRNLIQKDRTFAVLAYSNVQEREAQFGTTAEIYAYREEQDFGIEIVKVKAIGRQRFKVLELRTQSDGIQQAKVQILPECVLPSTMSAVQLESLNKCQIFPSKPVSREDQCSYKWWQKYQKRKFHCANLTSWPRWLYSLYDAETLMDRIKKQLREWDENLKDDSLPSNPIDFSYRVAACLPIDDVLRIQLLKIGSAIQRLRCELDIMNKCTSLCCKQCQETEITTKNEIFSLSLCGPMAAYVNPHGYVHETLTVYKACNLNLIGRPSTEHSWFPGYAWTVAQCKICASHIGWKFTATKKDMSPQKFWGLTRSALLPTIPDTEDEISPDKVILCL
Sequence of [MCL-1]-[compound of formula (I)]-[CRBN/DDB1] complex (Q16531 whole entry partner): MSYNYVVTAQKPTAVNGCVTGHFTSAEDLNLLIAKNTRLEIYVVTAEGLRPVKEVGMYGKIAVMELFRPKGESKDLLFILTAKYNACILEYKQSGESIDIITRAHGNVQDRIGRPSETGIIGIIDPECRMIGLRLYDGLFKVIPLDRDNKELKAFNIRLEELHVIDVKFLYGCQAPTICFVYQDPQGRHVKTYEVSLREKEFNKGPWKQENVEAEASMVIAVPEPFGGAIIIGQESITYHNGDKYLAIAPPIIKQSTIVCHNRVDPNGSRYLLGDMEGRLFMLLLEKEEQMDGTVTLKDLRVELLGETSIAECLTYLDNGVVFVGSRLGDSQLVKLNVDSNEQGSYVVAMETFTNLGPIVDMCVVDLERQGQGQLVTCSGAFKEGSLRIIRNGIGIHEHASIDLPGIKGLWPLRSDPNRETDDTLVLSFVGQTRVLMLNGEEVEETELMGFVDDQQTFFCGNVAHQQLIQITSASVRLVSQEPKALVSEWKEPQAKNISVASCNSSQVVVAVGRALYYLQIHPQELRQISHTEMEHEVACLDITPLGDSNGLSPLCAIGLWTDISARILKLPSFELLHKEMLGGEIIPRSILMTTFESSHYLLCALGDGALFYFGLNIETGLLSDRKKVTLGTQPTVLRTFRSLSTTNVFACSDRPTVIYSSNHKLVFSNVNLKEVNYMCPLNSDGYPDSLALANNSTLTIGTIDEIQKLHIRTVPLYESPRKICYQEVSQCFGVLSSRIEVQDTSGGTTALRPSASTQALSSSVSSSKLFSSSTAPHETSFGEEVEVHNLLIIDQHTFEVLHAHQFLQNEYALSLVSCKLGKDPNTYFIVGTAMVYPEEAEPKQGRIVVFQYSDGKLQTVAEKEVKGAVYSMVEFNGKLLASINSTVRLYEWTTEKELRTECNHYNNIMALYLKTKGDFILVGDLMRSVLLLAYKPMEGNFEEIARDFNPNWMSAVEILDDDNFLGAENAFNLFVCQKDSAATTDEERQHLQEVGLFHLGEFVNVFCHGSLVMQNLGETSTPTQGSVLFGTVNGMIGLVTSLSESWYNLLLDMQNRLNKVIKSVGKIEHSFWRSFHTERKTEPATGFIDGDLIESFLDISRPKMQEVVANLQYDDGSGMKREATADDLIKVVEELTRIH
(In general: In Alpha technology, singlet oxygen from a donor bead excites a nearby acceptor bead.)

The subject of data set [4] is iCELL Cardiomyocytes. Put plainly: Cardiac safety: caspase 3 and 7 activation (Caspase-Glo 3/7) in iCELL Cardiomyocytes. The format is cell-based. The note with it: for Fold change at 1.2 uM (caspase 3/7 activity in cardiomyocytes): 24 hours incubation, vs DMSO; for activity in caspase activity assay in cardiomyocytes: as opposed to reference compound AZD5991. From the text: The effect of various compounds of the invention and a reference compound AZD5991 on cardiac safety was investigated by the evaluation of caspase 3 and 7 activation using Caspase-Glo 3/7 Assay (Promega; G8092) in iCELL™ Cardiomyocytes from FUJIFILM Cellular Dynamics (Catalog number: 11713). In the Caspase-Glo® 3/7 Assay, the luminescence (measured as Relative Luciferase Units, RLU) is proportional to the amount of caspase activity present in each sample.
The assay is initiated by thawing and seeding iCell® Cardiomyocytes as specified in the User Guide. After 48 hours, the cells are washed to remove unattached cells and debris and immediately treated with compounds or DMSO diluted in the maintenance medium (FCDI; cat: M1003). Compound concentrations used in this assay: 7 points 1/3 dilution curve starting at 100 uM. After 24 hours of incubation with compounds, caspase activity is measured by the addition of the Caspase-Glo® 3/7 Reagent followed by the luminescence measurement.
The analysis of the results is performed by calculation of the fold change in caspase 3/7 activity at a given compound concentration. Fold change is calculated with the formula: […]
where: • RLU Xi is the Relative Luciferase Units of sample I; • RLU BG is the Background Relative Luciferase Units; • RLU C is the Relative Luciferase Units of Control (DMSO).
The experiments were performed in technical duplicates.

The target in data set [5] is T1, MCL-1 protein (Homo sapiens, UniProt Q07820). Put plainly: OPM-2 cells: MCL-1 protein degradation, Western blot. Particulars: OPM-2 cell line, 6 h treatment, 100 nM compound, vs DMSO. The arrangement: endogenous in cells; host or cells: OPM-2. It is filed as cell-based. From the text:
The effect of various compounds of the invention and the reference compounds on MCL-1 protein degradation in the OPM-2 cell line was investigated, using the degradation assay protocol below.
(§1) OPM-2 cells were maintained in RPMI-1640 medium, supplemented with penicillin/streptomycin and 10% Fetal Bovine Serum (FBS). During the treatment, FBS concentration was reduced to 1%.
(§2) Compound stocks were pre-diluted in DMSO and added directly to the cells growth medium (final DMSO concentration: 0.5%).
(§3) OPM-2 cells were collected, centrifuged (250 rcf, 5 min), resuspended in a growth medium containing 1% FBS and counted. The cell suspension was then adjusted to 1×10^6 cell/ml using a growth medium containing 1% FBS. Afterwards, 0.5×10^6 cells were seeded on 24-well plates in 0.5 mL of medium per well. Immediately after seeding cells, compounds in appropriate concentrations were added to the cell culture medium.
Following the treatment with the compounds, cells were collected from the plates and suspended in a lysis buffer (2% SDS, 50 mM Tris, pH 8.0, 100 U/ml Pierce Universal Nuclease for Cell Lysis, complete EDTA-free Protease Inhibitor Cocktail) and incubated on ice for 45 min. The amount of protein was determined via BCA assay, and the equal quantity of each sample was loaded on the precast gel for the protein separation. Following the electrophoresis and transfer to the membrane, the membrane was stained with Ponceau (0.1% (w/v) Ponceau in 5% acetic acid). After total protein detection, the stain was washed out using TBST. After the antibody staining for MCL-1 and α-tubulin, the membranes were washed and signals developed.
Densitometric values for MCL-1 were normalized to total protein level (the Ponceau Staining). [%] of protein reduction is calculated in comparison to the cells treated with DMSO, which stand for 0%.
The results for the 6 h treatment with 100 nM compounds are shown in Table 9, using the following labels: • <30% for 0-29% of MCL-1 protein reduction, • ≥30% for 30-49% of MCL-1 protein reduction, • ≥50% for 50-100% of MCL-1 protein reduction.
(In western blotting, separated proteins are transferred to a membrane and probed.)

Data set [6] addresses T1, MCL-1 protein. Put plainly: OPM-2 cells: MCL-1 protein degradation, Simple Western. The format is cell-based. Further details: endogenous in cells; host or cells: OPM-2. The note with it: OPM-2 cell line, 6 h treatment, 100 nM compound, vs DMSO.
From the text: The effect of various compounds of the invention and the reference compounds on MCL-1protein degradation in the OPM-2 cell line was investigated, using the degradation assay protocol below.
as §1, §2, §3
Following the treatment with the compounds, cells were collected from the plates and suspended in a lysis buffer (2% SDS, 50 mM Tris, pH 8.0, 100 U/ml Pierce Universal Nuclease for Cell Lysis, cOmplete EDTA-free Protease Inhibitor Cocktail) and incubated on ice for 45 min.
The following steps, including sample loading, protein separation, immunoprobing or labelling, washes and detection analysis was performed using Jess from ProteinSimple, an automatic system for analyzing protein levels in cell lysates (12-230 kDa Jess or Wes separation module 8×25 capillaries, protein normalization assay, no. SM-PN01-1). The Protein of Interest was detected using MCL-1 (D35A5) Rabbit monoclonal antibody (Cell Signaling, #5453, LOT: 4). Antibody was diluted in a ratio of 1:100 in Antibody diluent.
[%] of protein reduction is calculated in comparison to the cells treated with DMSO, which stand for 0%.
The results for the 6 h treatment with 100 nM compounds are shown in Table 9, using the following labels: • <20% for 0-19% of MCL-1 protein reduction, • ≥20% for 20-39% of MCL-1 protein reduction, • ≥40% for 40-100% of MCL-1 protein reduction.

Data set [7] concerns hiPSC-CM (iCELL Cardiomyocytes). Nature of the data set: Cardiac safety: hiPSC-CM cell viability assay (CTG). It is filed as cell-based, human. Particulars: viability, CTG assay, treatment until day 14. From the text: The effect of various compounds of the invention and a reference compounds AZD5991 and MIK665 on cardiac safety was investigated by the evaluation of viability with CTG assay (Promega; cat #G7572) in iCELL™ Cardiomyocytes from FUJIFILM Cellular Dynamics (Catalog number: 11713).
Cells were thawed, counted using an automated cell counter (TC20, Bio-Rad) and seeded in 96 well plates (Greiner-BioOne; 655098) previously coated with 0.1% gelatin (Sigma-Aldrich; G1890) using Plating Medium (#M1001) following the instructions of the iCELL cardiomyocytes User Guide. Forty ml of Plating Medium was used to equally distribute the cells in four 96 well plates. Cells were then placed in the incubator at 37° C., 5% CO2 and left undisturbed for 48 hours. Compounds were serially diluted in DMSO and then further diluted to final assay concentration using maintenance medium (#M1003). Final DMSO concentration was 0.5%. Forty eight hours after plating, non-adherent cells and debris were washed as described in the User Guide. Plating medium was then replaced with maintenance medium containing diluted compounds or DMSO (as control). Medium was then changed every 2 days with fresh medium containing compounds or DMSO until the end of the treatment. On day 14, only medium without compounds was used immediately before the CTG assay. Luminescence signal was measured using a CLARIOstar Plus Multi-Mode Microplate Reader (574-590 nm).

T1 sequence (Q07820 whole entry): as the sequence (Q07820 whole entry) above

Consider `Cc1nn(C)c(C)c1-c1c(Cl)ccc2c(CCCOc3cccc4ccccc34)c(C(=O)O)n(CCN3CCN(C(=O)COc4cccc5c4CN(C4CCC(=O)NC4=O)C5=O)CC3)c12` (stereo not shown) [Compound 206, 6-chloro-1-(2-(4-(2-((2-(2,6-dioxopiperidin-3-yl)-1-oxoisoindolin-4-yl)oxy)acetyl)piperazin-1-yl)ethyl)-3-(3-(naphthalen-1-yloxy)propyl)-7-(1,3,5-trimethyl-1H-pyrazol-4-yl)-1H-indole-2-carboxylic acid], for which the IC50 in data set [1] was at most 316 nM. Besides, the IC50 in data set [2] was at most 100 nM. In addition, the EC50 in data set [3] was under 100 nM. In data set [4], the “Fold change at 1.2 uM (caspase 3/7 activity in cardiomyocytes)” value (“Fold change at 1.2 uM” below) is at most 1.5 ± 0.2 and the “activity in caspase activity assay in cardiomyocytes” value (“activity in caspase activity assay” for short) is recorded as “little to no activity”. Also, in data set [5], the “Western blot, % of protein reduction” value is reported as at least 50%. The “Simple Western, % of protein reduction” value in data set [6] is on record as at least 40%.
As for MIK665 [reference compound], the “Average pIC50 by molecule hiPSC-CM” value in data set [7] came to 6.9.
Regarding `Cc1nn(C)c(C)c1-c1c(Cl)ccc2c(CCCOc3cccc4cc(F)ccc34)c(C(=O)O)n(CCN3CCN(C(=O)COc4cccc5c4C(=O)N(C4CCC(=O)NC4=O)C5=O)CC3)c12` (stereo not shown) [Compound 214, 6-chloro-1-{2-[4-(2-{(2-(2,6-dioxopiperidin-3-yl)-1,3-dioxo-2,3-dihydro-1H-isoindol-4-yl]oxy}acetyl)piperazin-1-yl]ethyl}-3-{3-[(6-fluoronaphthalen-1-yl)oxy]propyl}-7-(1,3,5-trimethyl-1H-pyrazol-4-yl)-1H-indole-2-carboxylic acid], the IC50 in data set [1] is at most 316 nM. The IC50 in data set [2] was at most 100 nM. The EC50 in data set [3] was under 10 nM. In data set [4], the “Fold change at 1.2 uM” value was at most 1.5 ± 0.2 and the “activity in caspase activity assay” value was “little to no activity”. Further, the “Western blot, % of protein reduction” value in data set [5] was at least 50%. In addition, the “Simple Western, % of protein reduction” value in data set [6] is at least 40%.
On to `Cc1nc2c(C(=O)NC3CCC(=O)NC3=O)cc(OCC(=O)N3CCN(CCn4c(C(=O)O)c(CCCOc5cccc6ccccc56)c5ccc(Cl)c(-c6c(C)nn(C)c6C)c54)CC3)cc2[nH]1` (stereo not shown) [Compound 263, 6-chloro-1-(2-{4-[2-({4-[(2,6-dioxopiperidin-3-yl)carbamoyl]-2-methyl-1H-1,3-benzodiazol-6-yl}oxy)acetyl]piperazin-1-yl}ethyl)-3-[3-(naphthalen-1-yloxy)propyl]-7-(1,3,5-trimethyl-1H-pyrazol-4-yl)-1H-indole-2-carboxylic acid], for which the IC50 in data set [1] is at most 1000 nM; in data set [2], at most 316 nM. Also, the EC50 in data set [3] was under 100 nM. The “Western blot, % of protein reduction” value in data set [5] is given as at least 50%. For the same compound, the “Simple Western, % of protein reduction” value in data set [6] is at least 40%.
As for `Cc1c2c(nn1C)CSCc1cc(n(C)n1)CSc1cc(c3ccccc3c1)OCCCc1c(C(=O)O)n(C)c3c-2c(Cl)ccc13` [AZD5991, reference compound], the IC50 in data set [7] (Homo sapiens, Cardiomyocyte, 336 h, read-out: Average pIC50 by molecule hiPSC-CM (converted)) is 631 nM. Moreover, the “Fold change at 1.2 uM” value in data set [4] turned out to be 2.9 ± 0.5.
Turning to `Cc1nn(C)c(C)c1-c1c(Cl)ccc2c(CCCOc3cccc4ccccc34)c(C(=O)O)n(CCN3CCN(C(=O)Cn4c(C)nc5c(C(=O)NC6CCC(=O)NC6=O)cccc54)CC3)c12` (stereo not shown) [Compound 266, 6-chloro-1-{2-[4-(2-{4-[(2,6-dioxopiperidin-3-yl)carbamoyl]-2-methyl-1H-1,3-benzodiazol-1-yl}acetyl)piperazin-1-yl]ethyl}-3-[3-(naphthalen-1-yloxy)propyl]-7-(1,3,5-trimethyl-1H-pyrazol-4-yl)-1H-indole-2-carboxylic acid], the IC50 in data set [1] is at most 316 nM. Also, in data set [2], the IC50 was at most 100 nM. The EC50 in data set [3] is under 100 nM. Further, in data set [4], the “Fold change at 1.2 uM” value is recorded as at most 1.5 ± 0.2 and the “activity in caspase activity assay” value is recorded as “little to no activity”. Further, in data set [6], the “Simple Western, % of protein reduction” value is at least 40%.
